For data set [1] the following is noted: physiological conditions; 50 mM potassium phosphate pH 7.4, three-fold molar excess of reductant.
Experimental: H9c2 cells were incubated for 30 min with vehicle, 2.5 μM cobinamide, or 5 μM rotenone, the latter in the absence or presence of 2.5 μM cobinamide, imisopasem, MnTBAP, or cobalamin; 5 μM MitoSOX was added during the last 10 min. The cells were incubated with 1 mg/ml DAPI for 3 min to counterstain nuclei, and then visualized under a fluorescence microscope. […] Equal-sized representative areas for each condition are shown for MitoSOX staining (red fluorescence) and the same area showing merged MitoSOX and DAPI staining. […] The amount of red fluorescence was quantified by Image J analysis. Data are the mean±SD of three independent experiments; in each experiment two separate equal-sized areas were analyzed containing ˜75 cells per area. […] H9c2 cells were incubated for 10 min with 10 μM JC-1, washed once with PBS, and then incubated for 30 min with vehicle, 2.5 μM cobinamide, or 5 μM rotenone in the absence or presence of 2.5 μM of the indicated drugs as described in Panels A, B. FIG. 3C. Cells were visualized under a fluorescence microscope and equal-sized representative areas of each condition are shown, with red and green fluorescence shown for the same area. […] The amount of red and green fluorescence was quantified by Image J analysis and the red to green ratio was calculated. The slides were analyzed by an operator who was blinded to the specific conditions. Data are the mean±SD of three independent experiments; in each experiment two separate equal-sized areas were analyzed containing ˜75 cells per area. […] Blots from four independent experiments were analyzed by densitometric scanning (Li-Cor Odyssey software) in a range where band intensity was linear. The ratio of the pJNK band to GAPDH was calculated, and the results normalized to control untreated cells. […] The UV-visible spectrum of Chi(III) in 50 mM potassium phosphate buffer, pH 7.4 was recorded before (black line) and immediately after adding a three-fold molar excess of ascorbate (blue line), cysteine (teal line), or reduced glutathione (GSH, pink line). […]
Data set [2] has as its system mouse model of human familial aortic aneurysm. The following applies: 1 mM cobinamide in drinking water; cited from earlier work.
Data set [3] deals with COS-7 cells. How it is done: FIGS. 3A-3H. […] FIGS. 3A-3B. […] FIG. 3A. […] FIG. 3B. […] FIGS. 3C-3D. […] FIG. 3D. […] FIGS. 3E-3F. […] FIG. 3E. Representative blots are shown. […] FIG. 3F. […] FIG. 3G. […] FIG. 3H.
Finally, whether cobinamide could alleviate the effects of oxidative stress induced by yet another mechanism in a different cell type was tested using paraquat-treated COS-7 cells. Paraquat generates O2·^− through a redox cycling mechanism and increases both intracellular O2·^− and H2O2^42.

The nature of data set [4]: Reaction with superoxide, hypoxanthine-xanthine oxidase-cytochrome c reduction system. The note with it: for Apparent rate constant, reaction with superoxide (O2·^−): second order, hypoxanthine-xanthine oxidase-cytochrome c system, new data of this study. In kind it is biochemical. How it is done:
FIGS. 1A-1G. Cobinamide Functions as a Superoxide Dismutase Mimetic. FIGS. 1A-1B. Chemical structures of aquohydroxo-cobinamide (FIG. 1A) and hydroxo-cobalamin (FIG. 1B). FIGS. 1C, 1E. Increasing concentrations of Chi(III) (FIG. 1C) or Chi(II) (FIG. 1E) were incubated in a hypoxanthine-xanthine oxidase-cytochrome c-catalase system for measuring O2·^−, with the change in absorbance at 550 nm (ΔAbs) plotted versus time. A no substrate (no hypoxanthine) control was included. FIGS. 1D, 1F. The calculated rate of change of absorbance at 550 nm in the absence of Chi(III) or Chi(II) (Vo) divided by the calculated rate in their presence (v) is plotted against the Chi(III) (FIG. 1D) or Chi(II) (FIG. 1F) concentration, respectively. The slope of the fitted line was used to calculate the apparent rate constant according to the following equation: kCbi=slope×kcytochrome c×[cytochrome c], where kcytochrome c=1.4×10^6 M^−1 s^−1 and [cytochrome c]=70 μM^70. The data shown are the mean of duplicate samples from one experiment, with similar results found in two additional experiments. Dotted lines show 95% confidence intervals. FIG. 1G. A 20 μM solution of Chi(III) in DMSO was scanned from 280 to 600 nm yielding the spectrum shown as a black line. An equimolar amount of […] (KO2) dissolved in dimethyl sulfoxide (DMSO) was added and the solution was scanned immediately, yielding the grey line. […] The experiment was conducted three times with identical results.
(§1) Table I. Reaction Rates of Cobinamide (Cbi), Cobalamin, Imisopasem, and MnTBAP with Reactive Oxygen and Nitrogen Species. Reactions of the indicated compounds with O2·^−, ONOO^−, and ·NO are all second order reactions with rate constants in units of M^−1 s^−1. The reactions of Cbi(III) and Cbi(II) with H2O2 are third order with rate constant units of M^−2 s^−1. Chi(II) and cobalamin(II) bind nitric oxide, so a Ka is shown in units of M^−1. For the new data presented in this study, rate constants were measured for O2·^− using a hypoxanthine-xanthine oxidase-cytochrome c system, for H2O2 using a H2O2-specific sensor (World Precision Instruments), and for ONOO^− using a stopped-flow instrument. Published rate constants for Cu/Zn and Mn superoxide dismutases (SOD) and catalase are shown for reference.^a,b Letters and numbers in parenthesis refer to footnotes and references, respectively.
The reaction of cobinamide with O2·^− was studied in two different systems, generating O2·^− using a hypoxanthine-xanthine oxidase system.
The first system contained 100 μM hypoxanthine and 0.1 unit xanthine oxidase in 20 mM sodium phosphate buffer, pH 7.1. The amount of O2·^− was measured by following reduction of ferric-cytochrome c (70 μM) at 550 nm as described previously^65. Catalase was included (32 units per sample), because xanthine oxidase generates both O2·^− and H2O2, and the latter can re-oxidize the ferro-cytochrome c product^34,66. The reaction was followed for 10 min. A no substrate blank lacking hypoxanthine was included.
In both systems, the experiments were conducted in the absence and presence of the indicated concentrations of Cbi(III) or Chi(II) 65.
Catalase was included in the reaction mixture, because the hypoxanthine-xanthine oxidase system also generates H2O2 and the latter can oxidize the ferro-cytochrome c product back to ferric-cytochrome c, thereby interfering with the kinetic measurement^34.

A short description of data set [5]: Reaction with hydrogen peroxide, H2O2-specific electrode. The format is biochemical. How it is done: FIGS. 2A-2F. Cobinamide Functions as a Catalase Mimetic and Reacts with Peroxynitrite. […]. Hydrogen peroxide (final concentration 50 μM) was added to solutions containing increasing concentrations of Chi(III) (FIG. 2A) or Chi(II) (FIG. 2C), and the H2O2 concentration was measured over time using a H2O2-specific electrode. The log of the velocity in the presence of Chi(III) (FIG. 2B) or Chi(II) (v) (FIG. 2D) over the velocity in their absence (Vo) is plotted against the log of their concentrations at 20 min over their concentrations at zero time. These plots yield a reaction order with respect to Chi(III) and Cbi(II) of 0.7. The experiments were repeated three times with similar results. Dotted lines show 95% confidence intervals. FIG. 2E. […] The Chi(III) spectra are slightly different from those shown in FIG. 1G because at pH 11, dihydroxo-cobinamide is generated, whereas at pH 7.1, aquohydroxo-cobinamide is the predominant species. The spectra of aquohydroxo- and dihydroxo-cobinamide are known to be different^65. FIG. 2F. Varying concentrations of Chi(II) from 1 to 10 μM were mixed with 10 μM peroxynitrite in a stopped-flow instrument, and absorption at 315 nm was monitored for 0.5 sec. The results for 5 μM Cbi(II) are shown; red circles are the observed data, and the black line is a two-phase non-linear regression curve generated by Prism 7.04 software. […] The experiment was repeated three times with similar results. Dotted lines show 95% confidence intervals.
as §1
Both Cbi(III) and Chi(II) react with H2O2, and the reaction was essentially first order with respect to Cbi(III) and Cbi(II) (FIG. 2A-D), and second order with respect to H2O2 for both cobinamide species. […]

This is an account of results in patent publication US20260069606A1, “Oxidative Stress and Diabetes Treatment with Cobinamide” (The Regents of the University of California, priority 2022, published 2026).

As to `C/C1=C2/[N-][C@H]([C@H](CC(N)=O)[C@@]2(C)CCC(=O)NC[C@@H](C)O)[C@]2(C)N=C(/C(C)=C3N=C(/C=C4N=C1[C@@H](CCC(N)=O)C\4(C)C)[C@@H](CCC(N)=O)[C@]\3(C)CC(N)=O)[C@@H](CCC(N)=O)[C@]2(C)CC(N)=O.[Co+3]` [cobinamide, aquohydroxo-cobinamide], the “Reduction by ascorbate, cysteine and reduced glutathione (GSH)” value in data set [1] is “readily reduced to Cbi(II)”. Moreover, in data set [2], the “Aortic oxidative stress, pathological changes and aneurysm formation” value was “blocked the increase in oxidative stress and pathological changes, and prevented aneurysm formation”; the “Clinical or laboratory evidence of toxicity” value is “no clinical or laboratory evidence of toxicity”. The “Cell growth of paraquat-treated cells” value in data set [3] (COS-7, 1 mM paraquat 3 h, 100 μM drug, counted 48 h later) is reported as ~80 % of the control value. In data set [3] (COS-7, no paraquat), the “Effect on cell growth, drug alone” value is “no effect on cell growth”. Further, in data set [4] (hypoxanthine-xanthine oxidase-cytochrome c reduction system, catalase included, exponent shared in the sentence), the “Apparent rate constants, reaction with O2·^−” value is 1.12e+08 M⁻¹ s⁻¹. For the same compound, the “Apparent rate constant, reaction with superoxide (O2·^−)” value in data set [4] (listed as Cbi(III)) worked out at 1.1e+08 M⁻¹ s⁻¹. The “Apparent rate constant, reaction with superoxide (O2·^−)” value in data set [4] (listed as Chi(III)) was determined as 1.12e+08 M⁻¹ s⁻¹. In data set [5] (50 μM H2O2), the “Reaction order with respect to the cobinamide species in the reaction with H2O2” value came to 0.7. Further, the “Apparent rate constant, reaction with hydrogen peroxide (H2O2)” value in data set [5] (third order, H2O2-specific sensor, new data of this study, listed as Cbi(III)) is on record as 8.0 × 10^2 M^−2 s^−1.
